Structures can show the parent of a compound that is named as a salt. Values belong to the molecule of their own block, whether it stands above or below them.
Assays:
Obese (ob/ob) mouse = assay: In vivo assay of reduction of food intake

Compound: Cl.O=S(=O)(Nc1ccc(N2CCCNCC2)cc1NS(=O)(=O)c1ccccc1)c1ccccc1 [Example 27, N-{4-(homopiperazinyl)-2-[(phenylsulfonyl)amino]phenyl}benzenesulfonamide hydrochloride]
Reduction of Food Intake (%) po administration (Obese (ob/ob) mouse; Dose 50 mg/Kg): 28%

Compound: CCN(c1cc(N2CCCNCC2)ccc1NS(=O)(=O)c1ccccc1)S(=O)(=O)c1ccccc1.Cl [Example 29, N-{4-(1,4-diazepan-1-yl)-2-[ethyl(phenylsulfonyl)amino]phenyl}benzenesulfonamide hydrochloride]
Reduction of Food Intake (%) po administration (Obese (ob/ob) mouse; Dose 100 mg/Kg): 60%

melting point: 84 to 85 °C
Compound: CN1CCCN(c2ccc(S(=O)(=O)Nc3ccccc3)cc2N)CC1 (as salt: hydrochloride) [Example 92, 3-Amino-4-(4-methyl-1,4-diazepan-1-yl)-N-phenylbenzenesulfonamide]
